Here are results for ten compounds from article PMC12096176 (RSC Chemical Biology, 2025).

The target of one assay is KOR (Homo sapiens, UniProt P41145). Type of assay: binding.
Assay [1] deals with MOR. It is filed as binding. Conditions: for Selectivity D/M: ratio Ki DOR / Ki MOR; for Selectivity K/M: ratio Ki KOR / Ki MOR.
In a further assay the target is DOR (Homo sapiens, UniProt P41143). It is filed as binding.
Assay [2] concerns the target MOR (Mus musculus, UniProt P42866). The assay is described as follows: MOR [35S]GTPγS functional assay, MOR-CHO membranes. The conditions noted are these: for MOR [35S]GTPγS Emax: relative to maximal stimulation produced by DAMGO; for Emax: read-out: MOR [35S]GTPγS Emax, relative to maximal stimulation produced by DAMGO. Type of assay: biochemical.
The test system of assay [3] is Swiss Webster mice. The assay can be described thus: Warm-water tail immersion assay, agonism. Conditions: single dose 10 mg kg^−1 s.c., 20 min after injection.
Assay [4] relates to Swiss Webster mice. The assay can be described thus: Warm-water tail immersion assay, antagonism of morphine antinociception. The conditions noted are these: single dose 10 mg kg^−1 s.c. in the presence of morphine 10 mg kg^−1 s.c.

What is called Ki is a dissociation constant, usually derived from enzyme kinetics or from competition with a known ligand. The low end stands for a stronger hold on the target, the high end for a looser hold on the target. In general, EC50 refers to the concentration at which the effect is half-maximal. A higher EC50 goes with lower potency in that assay. The compound `Cl.O=C(N[C@H]1CC[C@@]2(O)[C@H]3Cc4ccc(O)c5c4[C@@]2(CCN3CC2CC2)[C@H]1O5)c1cccc2c(Br)coc12` [Compound 2, 3-Bromo-N-((4R,4aS,7S,7aR,12bS)-3-(cyclopropylmethyl)-4a,9-dihydroxy-2,3,4,4a,5,6,7,7a-octahydro-1H-4,12-methanobenzofuro[3,2-e]isoquinolin-7-yl)benzofuran-7-carboxamide hydrochloride] returned an inhibitory constant (Ki) at KOR of 17.3 ± 1.2 nM. Besides, in the assay with MOR [1], the “Selectivity D/M” value is recorded as 154 and the “Selectivity K/M” value turned out to be 30. Also, at DOR, affinity was put at a Ki of 87.8 ± 5.5 nM. Moreover, at MOR [2], the EC50 was found to be 7.37 ± 2.32 nM and the “MOR [35S]GTPγS Emax” value was 16.0 ± 4.0%.
The Emax is the size of the effect at its maximum, as opposed to the concentration needed. In the case of `O=C(N[C@H]1CC[C@@]2(O)[C@H]3Cc4ccc(O)c5c4[C@@]2(CCN3CC2CC2)[C@H]1O5)c1cccc2c(Cl)coc12` [Compound 3, 3-Chloro-N-((4R,4aS,7S,7aR,12bS)-3-(cyclopropylmethyl)-4a,9-dihydroxy-2,3,4,4a,5,6,7,7a-octahydro-1H-4,12-methanobenzofuro[3,2-e]isoquinolin-7-yl)benzofuran-7-carboxamide], the inhibitory constant (Ki) on KOR is 17.1 ± 1.3 nM. For the same compound, in the assay on MOR [1], the “Selectivity D/M” value amounted to 277 and the “Selectivity K/M” value came out at 34. The Ki on DOR was 138 ± 24 nM. For the same compound, at MOR [2], the concentration for a half-maximal effect (EC50) is 2.65 ± 0.47 nM and the Emax came to 21.6 ± 0.8%.
Consider `Cc1coc2c(C(=O)N[C@H]3CC[C@@]4(O)[C@H]5Cc6ccc(O)c7c6[C@@]4(CCN5CC4CC4)[C@H]3O7)cccc12` [Compound 4, N-((4R,4aS,7S,7aR,12bS)-3-(Cyclopropylmethyl)-4a,9-dihydroxy-2,3,4,4a,5,6,7,7a-octahydro-1H-4,12-methanobenzofuro[3,2-e]isoquinolin-7-yl)-3-methylbenzofuran-7-carboxamide], for which, on KOR, affinity was put at a Ki of 15.7 ± 1.3 nM. Moreover, in the assay on MOR [1], the “Selectivity D/M” value amounted to 130 and the “Selectivity K/M” value turned out to be 23. The same compound returned a Ki at DOR of 87 ± 5.3 nM. In addition, at MOR [2], a half-maximal effect (EC50) was put at 4.52 ± 0.39 nM and the Emax was found to be 23.5 ± 1.6%.
For the compound `O=C(N[C@H]1CC[C@@]2(O)[C@H]3Cc4ccc(O)c5c4[C@@]2(CCN3CC2CC2)[C@H]1O5)c1cccc2c(-c3ccccc3)coc12` [Compound 5, N-((4R,4aS,7S,7aR,12bS)-3-(Cyclopropylmethyl)-4a,9-dihydroxy-2,3,4,4a,5,6,7,7a-octahydro-1H-4,12-methanobenzofuro[3,2-e]isoquinolin-7-yl)-3-phenylbenzofuran-7-carboxamide], the Ki at KOR turned out to be 33.8 ± 5.6 nM. In the assay with MOR [1], the “Selectivity D/M” value came out at 173 and the “Selectivity K/M” value is recorded as 24. At DOR, this compound had a Ki of 238 ± 28 nM. For the same compound, on MOR [2], the EC50 came to 27.4 ± 5 nM and the Emax was 17.3 ± 1%.
As to `O=C(N[C@H]1CC[C@@]2(O)[C@H]3Cc4ccc(O)c5c4[C@@]2(CCN3CC2CC2)[C@H]1O5)c1cccc2c(-c3ccncc3)coc12` [Compound 6, N-((4R,4aS,7S,7aR,12bS)-3-(Cyclopropylmethyl)-4a,9-dihydroxy-2,3,4,4a,5,6,7,7a-octahydro-1H-4,12-methanobenzofuro[3,2-e]isoquinolin-7-yl)-3-(pyridin-4-yl)benzofuran-7-carboxamide], the Ki at KOR worked out at 8.7 ± 1.5 nM. Also, in the assay with MOR [1], the “Selectivity D/M” value amounted to 41 and the “Selectivity K/M” value is 3.7. On DOR, this compound returned a Ki of 97.7 ± 16.3 nM. Also, on MOR [2], the midpoint of the response, the EC50, lay at 12 ± 2.1 nM and the Emax came to 14.8 ± 1.6%.
With `Cl.O=C(N[C@@H]1CC[C@@]2(O)[C@H]3Cc4ccc(O)c5c4[C@@]2(CCN3CC2CC2)[C@H]1O5)c1cccc2c(Br)coc12` [Compound 8, 3-Bromo-N-((4R,4aS,7R,7aR,12bS)-3-(cyclopropylmethyl)-4a,9-dihydroxy-2,3,4,4a,5,6,7,7a-octahydro-1H-4,12-methanobenzofuro[3,2-e]isoquinolin-7-yl)benzofuran-7-carboxamide hydrochloride], the affinity on KOR, expressed as Ki, was 0.21 ± 0.01 nM. In the assay on MOR [1], the “Selectivity D/M” value is reported as 27 and the “Selectivity K/M” value came to 1.0. The inhibition constant Ki at DOR turned out to be 5.34 ± 0.99 nM. Besides, on MOR [2], the EC50 worked out at 0.49 ± 0.08 nM and the “MOR [35S]GTPγS Emax” value amounted to 42.9 ± 3.9%. Further, the “%MPE (antinociception)” value in the assay with Swiss Webster mice [3] worked out at 90.9%.
Take `O=C(N[C@@H]1CC[C@@]2(O)[C@H]3Cc4ccc(O)c5c4[C@@]2(CCN3CC2CC2)[C@H]1O5)c1cccc2c(Cl)coc12` [Compound 9, 3-Chloro-N-((4R,4aS,7R,7aR,12bS)-3-(cyclopropylmethyl)-4a,9-dihydroxy-2,3,4,4a,5,6,7,7a-octahydro-1H-4,12-methanobenzofuro[3,2-e]isoquinolin-7-yl)benzofuran-7-carboxamide]: on KOR, the Ki was found to be 0.16 ± 0.02 nM. Also, in the assay on MOR [1], the “Selectivity D/M” value was determined as 37 and the “Selectivity K/M” value is on record as 1.1. For the same compound, on DOR, the Ki was found to be 5.17 ± 1.13 nM. In addition, on MOR [2], the EC50 turned out to be 0.35 ± 0.07 nM and the Emax is 51.2 ± 3.4%. In addition, the “%MPE (antinociception)” value in the assay with Swiss Webster mice [3] amounted to 84.5%.
`Cc1coc2c(C(=O)N[C@@H]3CC[C@@]4(O)[C@H]5Cc6ccc(O)c7c6[C@@]4(CCN5CC4CC4)[C@H]3O7)cccc12` [Compound 10, N-((4R,4aS,7R,7aR,12bS)-3-(Cyclopropylmethyl)-4a,9-dihydroxy-2,3,4,4a,5,6,7,7a-octahydro-1H-4,12-methanobenzofuro[3,2-e]isoquinolin-7-yl)-3-methylbenzofuran-7-carboxamide] came in with an inhibition constant (Ki) on KOR of 0.44 ± 0.08 nM. Further, in the assay with MOR [1], the “Selectivity D/M” value was 57 and the “Selectivity K/M” value is listed as 1.9. This compound returned a Ki at DOR of 13.1 ± 1.1 nM. Moreover, at MOR [2], the concentration for a half-maximal effect (EC50) was found to be 0.81 ± 0.14 nM and the Emax was determined as 32.7 ± 3.3%. Besides, in the assay with Swiss Webster mice [3], the “%MPE (antinociception)” value is listed as 54.2%.
As for `O=C(N[C@@H]1CC[C@@]2(O)[C@H]3Cc4ccc(O)c5c4[C@@]2(CCN3CC2CC2)[C@H]1O5)c1cccc2c(-c3ccccc3)coc12` [Compound 11, N-((4R,4aS,7R,7aR,12bS)-3-(Cyclopropylmethyl)-4a,9-dihydroxy-2,3,4,4a,5,6,7,7a-octahydro-1H-4,12-methanobenzofuro[3,2-e]isoquinolin-7-yl)-3-phenylbenzofuran-7-carboxamide], on KOR, the affinity corresponds to a Ki of 19.7 ± 2.2 nM. For the same compound, in the assay with MOR [1], the “Selectivity D/M” value was determined as 123 and the “Selectivity K/M” value was 110. In addition, the Ki at DOR is 22.1 ± 3.2 nM. On MOR [2], the half-maximal effective concentration (EC50) was found to be 0.56 ± 0.07 nM and the maximal response (Emax) is approximately 10%. Moreover, the “ability to reverse the antinociceptive effects of morphine” value in the assay on Swiss Webster mice [4] is recorded as “considerable antagonism activity”.
For `O=C(N[C@@H]1CC[C@@]2(O)[C@H]3Cc4ccc(O)c5c4[C@@]2(CCN3CC2CC2)[C@H]1O5)c1cccc2c(-c3ccncc3)coc12` [Compound 12, N-((4R,4aS,7R,7aR,12bS)-3-(Cyclopropylmethyl)-4a,9-dihydroxy-2,3,4,4a,5,6,7,7a-octahydro-1H-4,12-methanobenzofuro[3,2-e]isoquinolin-7-yl)-3-(pyridin-4-yl)benzofuran-7-carboxamide], on KOR, the Ki is 7.34 ± 0.95 nM. In the assay with MOR [1], the “Selectivity D/M” value is 213 and the “Selectivity K/M” value turned out to be 35. In addition, on DOR, the affinity, expressed as Ki, was 45 ± 9.3 nM. On MOR [2], the EC50 came out at 1.2 ± 0.38 nM and the Emax is approximately 10%. Also, in the assay with Swiss Webster mice [4], the “ability to reverse the antinociceptive effects of morphine” value is “considerable antagonism activity”.
